For test [1], the target named is Wee1-like protein kinase (Homo sapiens) (UniProt P30291). Kind of test: Selectivity interaction (ProQinase) EUB0000171b WEE1.
In test [2] the target is T1, Uncharacterized serine/threonine-protein kinase SBK3 (Homo sapiens) (UniProt P0C264).
T1 sequence (whole entry): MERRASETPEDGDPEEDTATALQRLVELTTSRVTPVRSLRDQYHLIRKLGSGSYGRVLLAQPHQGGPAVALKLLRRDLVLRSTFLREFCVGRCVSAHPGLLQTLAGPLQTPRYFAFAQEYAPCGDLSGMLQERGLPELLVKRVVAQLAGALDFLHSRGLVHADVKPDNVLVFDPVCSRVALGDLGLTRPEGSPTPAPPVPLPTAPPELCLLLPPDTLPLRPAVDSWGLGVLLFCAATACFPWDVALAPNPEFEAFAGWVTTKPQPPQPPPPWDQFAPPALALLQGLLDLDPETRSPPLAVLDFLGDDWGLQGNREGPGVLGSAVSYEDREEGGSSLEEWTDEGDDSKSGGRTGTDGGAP
In words: Selectivity interaction (KinomeScan (DiscoverX)) EUB0001049a SBK3. Particulars: at 1 µM.

In test [3] the target is T2, Interleukin-1 receptor-associated kinase 3 (Homo sapiens) (UniProt Q9Y616).
T2 sequence (whole entry): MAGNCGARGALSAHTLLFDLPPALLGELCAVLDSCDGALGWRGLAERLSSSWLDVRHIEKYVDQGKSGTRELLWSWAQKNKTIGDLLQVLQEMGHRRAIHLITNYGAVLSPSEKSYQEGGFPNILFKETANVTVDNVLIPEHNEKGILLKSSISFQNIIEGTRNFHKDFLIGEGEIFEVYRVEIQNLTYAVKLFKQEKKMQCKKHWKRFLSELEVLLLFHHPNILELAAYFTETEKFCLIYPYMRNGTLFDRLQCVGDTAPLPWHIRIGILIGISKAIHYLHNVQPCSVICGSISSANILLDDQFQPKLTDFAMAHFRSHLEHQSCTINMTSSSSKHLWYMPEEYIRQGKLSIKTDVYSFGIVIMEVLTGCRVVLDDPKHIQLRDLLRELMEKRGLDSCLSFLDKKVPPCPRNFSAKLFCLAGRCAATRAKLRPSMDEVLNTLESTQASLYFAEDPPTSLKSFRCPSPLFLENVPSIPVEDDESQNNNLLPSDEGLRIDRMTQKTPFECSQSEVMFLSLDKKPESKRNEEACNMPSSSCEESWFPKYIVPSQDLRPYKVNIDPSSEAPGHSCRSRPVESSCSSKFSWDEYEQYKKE
Kind of test: Selectivity interaction (KinomeScan (DiscoverX)) EUB0001049a IRAK3. Particulars: at 1 µM.

Test [4] addresses Insulin receptor (Homo sapiens, UniProt P06213). Kind of test: Selectivity interaction (KinomeScan (DiscoverX)) EUB0000695a INSR. Particulars: at 100 nM.
The target in test [5] is cAMP-dependent protein kinase catalytic subunit beta (Homo sapiens) (UniProt P22694). In words: Selectivity interaction (KinomeScan (DiscoverX)) EUB0000695a PRKACB. Particulars: at 100 nM.
Test [6] has as its target Mitogen-activated protein kinase 9 (Homo sapiens, UniProt P45984). Kind of test: Selectivity interaction (Kinase screening (Upstate/Millipore)) EUB0000604a MAPK9.
Test [7] addresses Tyrosine-protein kinase SYK (Homo sapiens, UniProt P43405). In words: Selectivity interaction (SelectScreen profiling (Invitrogen)) EUB0000607a SYK. Particulars: at 2 µM.
The target in test [8] is Serine/threonine-protein kinase Chk2 (Homo sapiens) (UniProt O96017). Kind of test: Selectivity interaction (ActivX KiNativ screen (kinase selectivity in THP-1 cell lysates)) EUB0000639a CHEK2. The format is subcellular. Conditions: lysate, at 0.2 µM.
Test [9] has as its target Tyrosine-protein kinase BTK (Homo sapiens, UniProt Q06187). In words: Selectivity interaction (ActivX KiNativ screen (kinase selectivity in THP-1 cell lysates)) EUB0000639a BTK. Conditions: lysate, at 0.04 µM. The format is subcellular.
For test [10], the target named is Ribosomal protein S6 kinase alpha-3 (Homo sapiens, UniProt P51812). Kind of test: Selectivity interaction (ActivX KiNativ screen (kinase selectivity in THP-1 cell lysates)) EUB0000639a RPS6KA3. Format: subcellular. Particulars: lysate, at 0.01 µM.
Test [11] concerns the target T3, Serine/threonine-protein kinase tousled-like 1 (Homo sapiens) (UniProt Q9UKI8).
T3 sequence (whole entry): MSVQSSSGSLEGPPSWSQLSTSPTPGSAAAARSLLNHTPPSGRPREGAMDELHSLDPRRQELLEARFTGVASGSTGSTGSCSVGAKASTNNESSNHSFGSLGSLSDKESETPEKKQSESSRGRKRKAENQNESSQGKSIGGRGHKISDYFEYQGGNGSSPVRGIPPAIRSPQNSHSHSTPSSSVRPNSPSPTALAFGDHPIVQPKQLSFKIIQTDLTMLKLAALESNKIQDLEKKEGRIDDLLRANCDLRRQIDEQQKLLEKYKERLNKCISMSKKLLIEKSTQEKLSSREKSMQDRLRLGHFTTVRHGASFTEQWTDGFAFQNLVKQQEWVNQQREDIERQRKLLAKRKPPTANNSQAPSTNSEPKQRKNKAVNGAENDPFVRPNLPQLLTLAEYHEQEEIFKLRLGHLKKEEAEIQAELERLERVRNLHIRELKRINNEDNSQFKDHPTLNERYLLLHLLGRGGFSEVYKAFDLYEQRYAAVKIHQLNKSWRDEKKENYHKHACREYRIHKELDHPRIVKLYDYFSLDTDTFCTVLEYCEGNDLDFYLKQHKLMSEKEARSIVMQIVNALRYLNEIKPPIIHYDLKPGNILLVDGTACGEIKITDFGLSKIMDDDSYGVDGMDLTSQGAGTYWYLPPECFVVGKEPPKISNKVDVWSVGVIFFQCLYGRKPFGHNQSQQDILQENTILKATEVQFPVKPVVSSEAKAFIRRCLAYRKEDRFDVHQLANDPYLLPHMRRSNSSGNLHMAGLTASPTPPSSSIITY
In words: Selectivity interaction (ActivX KiNativ screen (ex vivo kinase selectivity in human PBMCs)) EUB0001619a TLK1. The format is cell-based. Particulars: PBMC, at 1 µM.

Test [12] addresses Serine/threonine-protein kinase A-Raf (Homo sapiens) (UniProt P10398). Kind of test: Selectivity interaction (Kinase panel (KiNativ target engagement assay in Jurkat cells)) EUB0001635a ARAF. Format: cell-based. Particulars: Selectivity number of off-targets 0.0, Selectivity number of targets 233.0, Source Knowledge https://www.sciencedirect.com/science/article/pii/S2451945619300674?via%3Dihub, at 1 µM.

Among the data in ChEMBL document CHEMBL5465560, “Selectivity Literature for EUbOPEN Chemogenomic Library” (2024) are % of control, % of inhibition and % of engagement values, retold here.

Wee1-like protein kinase (Homo sapiens), sequence (P30291 whole entry, looked up): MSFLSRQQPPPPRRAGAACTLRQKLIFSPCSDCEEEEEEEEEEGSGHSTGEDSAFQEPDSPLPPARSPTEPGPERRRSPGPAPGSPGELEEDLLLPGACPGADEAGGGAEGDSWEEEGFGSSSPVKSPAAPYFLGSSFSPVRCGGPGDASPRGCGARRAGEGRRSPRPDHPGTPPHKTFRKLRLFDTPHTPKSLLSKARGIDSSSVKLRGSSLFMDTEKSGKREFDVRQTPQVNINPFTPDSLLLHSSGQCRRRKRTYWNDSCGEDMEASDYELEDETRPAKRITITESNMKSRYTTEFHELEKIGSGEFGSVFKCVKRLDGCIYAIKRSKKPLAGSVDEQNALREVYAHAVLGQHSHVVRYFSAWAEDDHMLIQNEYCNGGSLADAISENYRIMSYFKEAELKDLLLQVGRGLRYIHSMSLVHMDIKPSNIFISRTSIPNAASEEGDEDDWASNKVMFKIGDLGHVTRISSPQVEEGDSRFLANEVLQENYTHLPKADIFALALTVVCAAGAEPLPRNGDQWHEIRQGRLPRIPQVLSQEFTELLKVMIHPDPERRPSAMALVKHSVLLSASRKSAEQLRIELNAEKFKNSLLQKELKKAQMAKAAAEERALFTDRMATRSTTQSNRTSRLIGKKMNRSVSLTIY
Serine/threonine-protein kinase A-Raf (Homo sapiens), sequence (P10398 whole entry): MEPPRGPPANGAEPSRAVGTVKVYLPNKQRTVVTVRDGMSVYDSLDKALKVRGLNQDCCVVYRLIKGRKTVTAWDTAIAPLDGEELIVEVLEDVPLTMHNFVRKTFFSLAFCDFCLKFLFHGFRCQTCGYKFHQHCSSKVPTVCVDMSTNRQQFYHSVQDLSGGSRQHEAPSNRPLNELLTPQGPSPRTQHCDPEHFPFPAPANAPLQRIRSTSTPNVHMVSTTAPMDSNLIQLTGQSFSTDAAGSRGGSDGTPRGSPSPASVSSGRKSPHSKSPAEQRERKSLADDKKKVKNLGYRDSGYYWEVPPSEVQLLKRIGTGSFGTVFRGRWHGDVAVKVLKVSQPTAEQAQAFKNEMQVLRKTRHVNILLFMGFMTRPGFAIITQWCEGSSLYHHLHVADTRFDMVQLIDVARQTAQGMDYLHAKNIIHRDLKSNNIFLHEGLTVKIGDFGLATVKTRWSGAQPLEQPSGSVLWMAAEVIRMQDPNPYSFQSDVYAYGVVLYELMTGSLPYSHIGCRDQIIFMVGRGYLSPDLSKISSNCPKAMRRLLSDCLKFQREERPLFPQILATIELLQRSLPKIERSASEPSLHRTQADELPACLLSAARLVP
Tyrosine-protein kinase BTK, sequence (Q06187 whole entry): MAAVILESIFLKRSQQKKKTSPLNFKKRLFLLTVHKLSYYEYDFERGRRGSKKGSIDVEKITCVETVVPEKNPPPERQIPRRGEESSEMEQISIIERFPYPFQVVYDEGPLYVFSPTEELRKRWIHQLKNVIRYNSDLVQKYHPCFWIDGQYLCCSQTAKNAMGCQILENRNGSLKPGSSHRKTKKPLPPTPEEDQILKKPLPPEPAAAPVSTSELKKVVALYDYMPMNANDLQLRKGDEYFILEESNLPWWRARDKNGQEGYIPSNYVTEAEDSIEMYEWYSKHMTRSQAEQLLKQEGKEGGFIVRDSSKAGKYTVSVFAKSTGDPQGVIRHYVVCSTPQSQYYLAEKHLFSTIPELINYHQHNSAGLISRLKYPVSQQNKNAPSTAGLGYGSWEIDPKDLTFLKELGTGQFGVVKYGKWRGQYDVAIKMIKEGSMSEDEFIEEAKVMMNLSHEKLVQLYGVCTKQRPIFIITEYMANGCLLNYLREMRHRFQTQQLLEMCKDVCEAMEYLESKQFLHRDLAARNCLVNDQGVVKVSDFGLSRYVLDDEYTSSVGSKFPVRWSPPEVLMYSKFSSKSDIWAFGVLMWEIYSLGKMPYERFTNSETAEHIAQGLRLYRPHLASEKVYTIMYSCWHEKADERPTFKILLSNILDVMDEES
Ribosomal protein S6 kinase alpha-3, sequence (P51812 whole entry): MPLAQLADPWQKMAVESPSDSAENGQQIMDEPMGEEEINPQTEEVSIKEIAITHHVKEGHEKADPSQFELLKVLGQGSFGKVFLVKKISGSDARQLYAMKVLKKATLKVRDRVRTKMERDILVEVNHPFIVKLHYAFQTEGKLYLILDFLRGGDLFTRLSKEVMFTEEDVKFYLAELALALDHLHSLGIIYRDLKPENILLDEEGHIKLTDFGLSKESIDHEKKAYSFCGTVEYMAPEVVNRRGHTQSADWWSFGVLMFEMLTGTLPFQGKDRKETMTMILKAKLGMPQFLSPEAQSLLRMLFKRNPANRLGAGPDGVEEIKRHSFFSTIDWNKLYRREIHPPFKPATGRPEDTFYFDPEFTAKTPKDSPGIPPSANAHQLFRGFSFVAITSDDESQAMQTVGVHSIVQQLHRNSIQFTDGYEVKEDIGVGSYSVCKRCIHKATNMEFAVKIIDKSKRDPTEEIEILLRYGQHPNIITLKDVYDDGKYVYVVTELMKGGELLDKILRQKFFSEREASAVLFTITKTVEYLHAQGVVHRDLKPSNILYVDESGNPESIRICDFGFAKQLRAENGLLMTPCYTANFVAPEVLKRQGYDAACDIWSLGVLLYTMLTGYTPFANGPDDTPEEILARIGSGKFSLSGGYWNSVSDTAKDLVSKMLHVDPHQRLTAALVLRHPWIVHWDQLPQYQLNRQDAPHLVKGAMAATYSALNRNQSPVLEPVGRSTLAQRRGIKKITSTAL
Serine/threonine-protein kinase Chk2 (Homo sapiens), sequence (O96017 whole entry): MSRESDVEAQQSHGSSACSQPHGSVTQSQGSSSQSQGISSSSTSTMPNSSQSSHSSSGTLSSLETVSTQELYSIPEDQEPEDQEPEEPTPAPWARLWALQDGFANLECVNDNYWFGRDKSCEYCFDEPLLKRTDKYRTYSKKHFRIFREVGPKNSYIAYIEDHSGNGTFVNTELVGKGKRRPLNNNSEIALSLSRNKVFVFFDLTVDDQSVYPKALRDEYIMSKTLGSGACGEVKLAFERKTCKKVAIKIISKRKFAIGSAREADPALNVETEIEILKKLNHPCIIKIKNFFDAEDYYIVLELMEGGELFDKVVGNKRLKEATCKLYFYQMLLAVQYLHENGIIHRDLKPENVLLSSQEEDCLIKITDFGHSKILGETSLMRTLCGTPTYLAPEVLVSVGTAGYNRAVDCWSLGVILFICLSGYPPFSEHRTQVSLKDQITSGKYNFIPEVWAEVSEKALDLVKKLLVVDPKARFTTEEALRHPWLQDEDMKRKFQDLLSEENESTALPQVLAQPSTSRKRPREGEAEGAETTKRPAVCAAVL
Insulin receptor, sequence (P06213 28-758 limits assumed): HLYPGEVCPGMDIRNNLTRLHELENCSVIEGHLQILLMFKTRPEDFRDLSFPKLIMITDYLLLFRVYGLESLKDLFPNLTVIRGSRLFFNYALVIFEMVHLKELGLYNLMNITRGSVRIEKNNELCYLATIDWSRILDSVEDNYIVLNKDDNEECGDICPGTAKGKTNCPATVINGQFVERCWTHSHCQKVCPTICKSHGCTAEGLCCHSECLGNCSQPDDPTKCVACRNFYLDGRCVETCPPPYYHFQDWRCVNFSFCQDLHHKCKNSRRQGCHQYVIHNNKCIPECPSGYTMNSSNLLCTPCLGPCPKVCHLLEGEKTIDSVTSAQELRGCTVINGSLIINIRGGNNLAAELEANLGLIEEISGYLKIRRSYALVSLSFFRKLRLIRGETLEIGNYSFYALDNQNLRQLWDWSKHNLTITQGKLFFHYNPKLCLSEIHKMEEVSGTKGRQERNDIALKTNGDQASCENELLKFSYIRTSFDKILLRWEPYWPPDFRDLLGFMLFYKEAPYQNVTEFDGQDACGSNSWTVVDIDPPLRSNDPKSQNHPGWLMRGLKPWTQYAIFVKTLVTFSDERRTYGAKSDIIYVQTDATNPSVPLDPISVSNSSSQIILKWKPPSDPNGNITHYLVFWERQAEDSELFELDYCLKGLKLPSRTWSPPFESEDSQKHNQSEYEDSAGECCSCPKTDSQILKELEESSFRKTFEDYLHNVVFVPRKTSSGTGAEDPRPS
Insulin receptor, sequence (P06213 763-1382 limits assumed): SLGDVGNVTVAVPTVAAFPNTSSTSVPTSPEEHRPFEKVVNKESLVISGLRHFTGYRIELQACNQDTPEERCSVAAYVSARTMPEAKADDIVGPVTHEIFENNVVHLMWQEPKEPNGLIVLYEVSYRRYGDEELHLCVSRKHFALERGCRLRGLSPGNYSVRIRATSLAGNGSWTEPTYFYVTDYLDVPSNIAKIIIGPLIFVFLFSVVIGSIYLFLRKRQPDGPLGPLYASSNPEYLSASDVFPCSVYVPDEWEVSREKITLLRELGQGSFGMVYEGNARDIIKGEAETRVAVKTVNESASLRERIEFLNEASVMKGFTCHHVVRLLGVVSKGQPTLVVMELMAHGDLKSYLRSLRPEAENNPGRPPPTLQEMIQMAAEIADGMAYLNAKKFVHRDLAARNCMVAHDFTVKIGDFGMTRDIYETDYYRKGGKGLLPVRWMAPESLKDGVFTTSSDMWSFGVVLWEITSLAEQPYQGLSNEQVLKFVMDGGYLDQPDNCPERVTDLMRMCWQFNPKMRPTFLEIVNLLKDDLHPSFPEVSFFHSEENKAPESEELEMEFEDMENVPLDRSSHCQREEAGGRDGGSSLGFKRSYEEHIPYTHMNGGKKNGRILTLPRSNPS
Mitogen-activated protein kinase 9, sequence (P45984 whole entry, looked up): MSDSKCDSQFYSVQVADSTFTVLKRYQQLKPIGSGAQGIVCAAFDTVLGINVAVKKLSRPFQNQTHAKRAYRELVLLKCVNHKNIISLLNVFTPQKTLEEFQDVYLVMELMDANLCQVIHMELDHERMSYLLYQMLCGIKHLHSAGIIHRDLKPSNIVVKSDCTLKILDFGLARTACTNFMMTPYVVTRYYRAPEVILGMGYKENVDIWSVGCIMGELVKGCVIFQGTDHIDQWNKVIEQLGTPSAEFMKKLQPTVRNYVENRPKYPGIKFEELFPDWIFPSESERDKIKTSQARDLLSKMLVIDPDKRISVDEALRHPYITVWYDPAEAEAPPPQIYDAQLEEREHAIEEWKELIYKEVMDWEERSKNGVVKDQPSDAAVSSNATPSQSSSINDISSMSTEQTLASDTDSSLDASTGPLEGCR

As for `C=CC(=O)Nc1cccc(C(=O)Nc2ccc(Nc3cc(-c4[nH]c(SC)nc4C)ccn3)cc2)c1`, the values for the % of control in [1] (at 1 µM) and in test [1] (at 5 µM) were 73% and 79%, respectively.

As for `COc1cc(Nc2nc(C)cc(-c3cnn4nc(OC)ccc34)n2)cc(C(F)(F)F)c1`, the % of control in test [2] worked out at 87%; in test [3] it was 89%.

As to `Cc1cc(F)c(C(=O)Nc2cccc(-c3nncn3C(C)C)n2)cc1-n1cnc(C2CC2)c1`, the % of control in test [4] and in test [5] was 100% each time.

As for `Cc1cnc(Nc2ccc(F)cc2Cl)nc1-c1c[nH]c(C(=O)N[C@H](CO)c2cccc(Cl)c2)c1`, the % of inhibition in test [6] turned out to be 43%.

With `CNC(=O)Nc1ccc(-c2nc(N3CC4CCC(C3)O4)c3cnn(C4CCC5(CC4)OCCO5)c3n2)cc1`, the % of inhibition in [7] worked out at 1%.

Regarding `CC[C@@H]1[C@H](F)C(=O)N[C@@H]1COc1nccc2cc(C(N)=O)c(OC)cc12` [ZIMLOVISERTIB], the % of inhibition in test [8] is -0.3%; in test [9] it was -17.7%; in [10], 5%.

Take `N#Cc1cccc(-c2c[nH]c3ncnc(N4CCOCC4)c23)c1`: the % of inhibition in test [11] was 6%.

`C=CC(=O)Nc1ccc(C(=O)Nc2[nH]nc3c2CN(C(=O)N[C@H](CN(C)C)c2ccccc2)C3(C)C)cc1`: the % of engagement in test [12] was -2.2%.
